Experimental data published in ChEMBL document CHEMBL1862790, “Optimisation of fenarimol series for the treatment of Chagas disease”.

How the values were obtained:
[1] = system: Trypanosoma cruzi; test: microbe, parasite or virus in culture; type: functional, organism-based, Tulahuen LacZ, Clone C4; conditions: Trypanosoma cruzi, Tulahuen LacZ, Clone C4
[2] = DNDI: Cytotoxicity against L-6 rat myoblasts from skeletal muscle cells; conditions: L6 rat skeletal muscle myoblast cells, IC50
[3] = system: Trypanosoma cruzi; test: microbe, parasite or virus in culture; type: functional, Tulahuen LacZ, Clone C4; conditions: Trypanosoma cruzi, Tulahuen LacZ, Clone C4

| SMILES | IC50 [1] | IC50 [2] | IC90 [3] |
| --- | --- | --- | --- |
| CS(=O)(=O)c1ccc(N2CCC(NC(c3cccnc3)c3cnn(CC(F)(F)F)c3)CC2)cc1 (configuration not stated) | 4160 nM | > 100000 nM | > 10000 nM |
| CC(=O)NC1CCN(C(c2cnccn2)c2ccc(F)cc2F)CC1 (configuration not stated) | > 1000 nM | > 100000 nM | > 1000 nM |
| OC(c1ccc(Cl)cc1)(c1cccnc1)c1cnc(OC(CF)CF)nc1 (configuration not stated) | 32 nM | > 100000 nM | 150 nM |
| OC(c1ccc(Cl)cc1)(c1cncnc1)c1ccccc1F (configuration not stated) | 140 nM | > 100000 nM | 820 nM |
| CCS(=O)(=O)NC1CCN(C(c2cnccn2)c2ccc(F)cc2F)CC1 (configuration not stated) | 1890 nM | > 100000 nM | 5420 nM |
| Clc1ccc(C(=NN2CCCCC2)c2cccnc2)cc1 | 381 nM | 56800 nM | 630 nM |
| Nc1ncc(C(O)(c2ccc(Cl)cc2)c2cccnc2)cn1 (configuration not stated) | 290 nM | > 100000 nM | 910 nM |
| OC(c1ccc(Cl)cc1)(c1ccc(C(F)(F)F)cc1)c1cnc2ccccc2c1 (configuration not stated) | > 1000 nM | 62600 nM | > 1000 nM |
| Cc1cc(C(=O)N2CCC(NC(c3ccc(C(F)(F)F)cc3)c3cccnc3)CC2)nn1C (configuration not stated) | 66.5 nM | 58600 nM | 268 nM |
| OC(c1ccc(Cl)cc1)(c1ccc(Cl)cc1)c1ccco1 | > 10000 nM | 48000 nM | > 10000 nM |
| Cc1nocc1C(=O)NC1CCN(C(c2ccc(C(F)(F)F)cc2)c2cccnc2)CC1 (configuration not stated) | 15.5 nM | 65300 nM | 176 nM |
| FC(F)(F)c1ccc(N(CC2CCN(c3ccc(Cl)cc3)CC2)c2cccnc2)cc1 | 19 nM | 76300 nM | 41 nM |
| O=C(c1ccccc1)N1CCC(CN(c2ccc(C(F)(F)F)cc2)c2cccnc2)CC1 | 43 nM | 51400 nM | 86 nM |
| N#Cc1ccc(C(c2cccnc2)N2CCN(c3nccs3)CC2)cc1 (configuration not stated) | 49.5 nM | > 100000 nM | 159 nM |
| O=C(c1ccccc1)N1CCC(NC(c2cnccn2)c2ccc(F)cc2F)CC1 (configuration not stated) | 680 nM | > 100000 nM | > 1000 nM |
| CC(C)CC(=O)NC(c1ccc(C(F)(F)F)cc1)c1cnccn1 (configuration not stated) | 8910 nM | > 100000 nM | > 10000 nM |
| OC(c1ccc(Cl)cc1)(c1cncnc1)c1cccc(Cl)c1 (configuration not stated) | 513 nM | 57200 nM | 10000 nM |
| CCN(CC)C(=O)NC1CCN(C(c2ccc(C#N)cc2)c2cccnc2)CC1 (configuration not stated) | 28 nM | > 100000 nM | 85 nM |
| CC(C)S(=O)(=O)N1CCC(NC(c2ccc(C(F)(F)F)cc2)c2cnccn2)CC1 (configuration not stated) | 220 nM | > 100000 nM | 570 nM |
| CC(=O)N1CCC(NC(c2ccc(C(F)(F)F)cc2)c2cnccn2)CC1 (configuration not stated) | 3050 nM | > 100000 nM | 7810 nM |
| NC(=O)c1cccc(C(O)(c2ccc(C(F)(F)F)cc2)c2cccnc2)c1 (configuration not stated) | 70 nM | > 100000 nM | 300 nM |
| Fc1cc(Cl)ccc1N1CCC(NC(c2ccc(Cl)cc2)c2cccnc2)CC1 (configuration not stated) | 19.8 nM | 56700 nM | 35 nM |
| OC(c1cccnc1)(c1cncc(F)c1)c1ccc(Cl)cc1F (configuration not stated) | 228 nM | > 100000 nM | 868 nM |
| Fc1cccc(F)c1N1CCC(NC(c2ccc(C(F)(F)F)cc2)c2cccnc2)CC1 (configuration not stated) | 18 nM | 54200 nM | 54.5 nM |
| Cc1ccsc1C(O)(c1ccc(Cl)cc1)c1cccnc1 (configuration not stated) | 20 nM | 74200 nM | 90 nM |
| FC(F)(F)c1ccc(C(c2cccnc2)N2CCC(Oc3ccccc3)CC2)cc1 (configuration not stated) | 26.5 nM | 54400 nM | > 100 nM |
| OC(c1ccc(Cl)cc1)(c1cncnc1)c1cscn1 (configuration not stated) | 251 nM | > 100000 nM | 650 nM |
| O=S(=O)(NC(c1ccc(C(F)(F)F)cc1)c1cnccn1)c1ccc(C(F)(F)F)cc1 (configuration not stated) | > 1000 nM | 59900 nM | > 1000 nM |
| CCNC(=O)N1CCN(C(c2ccc(Cl)cc2)c2cncnc2)CC1 (configuration not stated) | 830 nM | > 100000 nM | 2720 nM |
